Test results published in PubChem BioAssay AID330 (DTP/NCI, 2004).
Several values for one entry are separate records, joined by “and”; a condition that tells them apart may be missing. Equal entries are not always repeated. Toxic doses and inconclusive results are not listed. The calls were made as follows: active = survival T/C of 150% or more; inactive = T/C below 125% in these data.

System: P388 leukemia ip, CD2F1 mice, survival T/C
Assay: NCI In Vivo Anticancer Drug Screen. Data for tumor model P388 Leukemia (intraperitoneal) in CD2F1 (CDF1) mice
Details: endpoint: median survival time, higher = longer survival
Outline: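 Mice carrying the transplanted tumor received test compound or vehicle. Survival was recorded in each group, and the value is the treated-group measurement divided by that of the vehicle-treated control group.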

[1] = dose: 25.0 mg/kg/injection, schedule: Q01DX009 (ip), vehicle: Klucel (hydroxypropylcellulose) (HPC)
[2] = dose: 50.0 mg/kg/injection, schedule: Q01DX009 (ip), vehicle: Klucel (hydroxypropylcellulose) (HPC)
[3] = dose: 100.0 mg/kg/injection, schedule: Q01DX009 (ip), vehicle: Klucel (hydroxypropylcellulose) (HPC)
[4] = dose: 200.0 mg/kg/injection, schedule: Q01DX009 (ip), vehicle: Klucel (hydroxypropylcellulose) (HPC)
[5] = dose: 60.0 mg/kg/injection, schedule: Q01DX005 (ip), vehicle: saline with Tween-80
[6] = dose: 120.0 mg/kg/injection, schedule: Q01DX005 (ip), vehicle: saline with Tween-80
[7] = dose: 240.0 mg/kg/injection, schedule: Q01DX005 (ip), vehicle: saline with Tween-80
[8] = dose: 50.0 mg/kg/injection, schedule: Q01DX005 (ip), vehicle: saline with Tween-80
[9] = dose: 100.0 mg/kg/injection, schedule: Q01DX005 (ip), vehicle: saline with Tween-80
[10] = dose: 200.0 mg/kg/injection, schedule: Q01DX005 (ip), vehicle: saline with Tween-80
[11] = dose: 50.0 mg/kg/injection, schedule: Q01DX005 (ip), vehicle: Klucel (hydroxypropylcellulose) (HPC)
[12] = dose: 100.0 mg/kg/injection, schedule: Q01DX005 (ip), vehicle: Klucel (hydroxypropylcellulose) (HPC)
[13] = dose: 200.0 mg/kg/injection, schedule: Q01DX005 (ip), vehicle: Klucel (hydroxypropylcellulose) (HPC)

Measured: T/C

Cc1cccc(CC(C)(O)Cc2cccc(C)n2)n1
inactive: dose: 50.0 mg/kg/injection, schedule: Q01DX009 (ip), vehicle: other 100 % of control | dose: 100.0 mg/kg/injection, schedule: Q01DX009 (ip), vehicle: other 100 % of control | dose: 200.0 mg/kg/injection, schedule: Q01DX009 (ip), vehicle: other 122 % of control

CCOC(=O)C(CC)Oc1cccc2c1oc1ccccc12 (stereo not given)
inactive: [1] 103 % of control | [2] 106 % of control | [3] 101 % of control | [4] 109 % of control

Nc1ccc(CCCC(=O)NCc2cccnc2)cc1
inactive: [5] 106 % of control | [6] 96 % of control | [7] 91 % of control

Fc1ccccc1C(Nc1cnccn1)Nc1cnccn1
inactive: dose: 12.5 mg/kg/injection, schedule: Q01DX005 (ip), vehicle: saline with Tween-80 96 % of control | dose: 25.0 mg/kg/injection, schedule: Q01DX005 (ip), vehicle: saline with Tween-80 102 % of control | [8] 102 % of control and 109 % of control | [9] 109 % of control | [10] 111 % of control

Cn1c2c(c(=O)c3c4[nH]c5c(c(=O)c4ccc31)CCCC5)CCCC2
inactive: [11] 108 % of control | dose: 50.0 mg/kg/injection, schedule: Q04DX003 (ip), vehicle: saline with Tween-80 103 % of control | [12] 101 % of control | dose: 100.0 mg/kg/injection, schedule: Q04DX003 (ip), vehicle: saline with Tween-80 103 % of control and 96 % of control | [13] 94 % of control | dose: 200.0 mg/kg/injection, schedule: Q04DX003 (ip), vehicle: saline with Tween-80 99 % of control | dose: 400.0 mg/kg/injection, schedule: Q04DX003 (ip), vehicle: saline with Tween-80 100 % of control and 94 % of control

O=C(/C=C/c1ccccc1)C1CCCCC1
inactive: [2] 107 % of control | [3] 107 % of control | [4] 106 % of control

O=C(CC1=NC2NN(c3ccccc3)C(=O)C2=C1CC(=O)C(c1ccccc1)c1ccccc1)C(c1ccccc1)c1ccccc1 (stereo not given)
inactive: dose: 60.0 mg/kg/injection, schedule: Q01DX005 (ip), vehicle: suspension in saline 98 % of control | dose: 120.0 mg/kg/injection, schedule: Q01DX005 (ip), vehicle: suspension in saline 102 % of control | dose: 240.0 mg/kg/injection, schedule: Q01DX005 (ip), vehicle: suspension in saline 100 % of control

COC1=C(OC)C(C(O)CO)OC1=O (stereo not given)
inactive: dose: 25.0 mg/kg/injection, schedule: Q01DX009 (ip), vehicle: water 98 % of control | dose: 50.0 mg/kg/injection, schedule: Q01DX009 (ip), vehicle: water 98 % of control | dose: 100.0 mg/kg/injection, schedule: Q01DX009 (ip), vehicle: water 90 % of control | dose: 200.0 mg/kg/injection, schedule: Q01DX009 (ip), vehicle: water 99 % of control | dose: 400.0 mg/kg/injection, schedule: Q01DX009 (ip), vehicle: water 96 % of control

COc1cccc(C2=NC(=C3CCCCC3)C(=O)O2)c1
inactive: [5] 105 % of control | [6] 105 % of control | [7] 100 % of control

CC1CCC(SC2CC(=O)CCC2=O)CC1 (stereo not given)
inactive: [8] 104 % of control and 115 % of control | [9] 106 % of control and 115 % of control | [10] 122 % of control

COC(OC)C1(C)NC(=O)NC1=O (stereo not given)
inactive: [2] 102 % of control | [3] 103 % of control | dose: 100.0 mg/kg/injection, schedule: Q04DX003 (ip), vehicle: Klucel (hydroxypropylcellulose) (HPC) 95 % of control | [4] 93 % of control | dose: 200.0 mg/kg/injection, schedule: Q04DX003 (ip), vehicle: Klucel (hydroxypropylcellulose) (HPC) 98 % of control | dose: 400.0 mg/kg/injection, schedule: Q04DX003 (ip), vehicle: Klucel (hydroxypropylcellulose) (HPC) 100 % of control

CCN1CC2(C)CCC(OC)C34C5CC6CCC(O)(C5C(=O)O6)C(C(OC(C)=O)C23)C14 (stereo not given)
inactive: dose: 3.0 mg/kg/injection, schedule: Q01DX009 (ip), vehicle: saline 100 % of control | dose: 6.0 mg/kg/injection, schedule: Q01DX009 (ip), vehicle: saline 101 % of control | dose: 12.0 mg/kg/injection, schedule: Q01DX009 (ip), vehicle: saline 98 % of control

COc1nc(N)c2cnn(C3CCCCO3)c2n1 (stereo not given)
inactive: dose: 100.0 mg/kg/injection, schedule: Q04DX002 (ip), vehicle: saline with Tween-80 99 % of control | dose: 200.0 mg/kg/injection, schedule: Q04DX002 (ip), vehicle: saline with Tween-80 96 % of control | dose: 400.0 mg/kg/injection, schedule: Q04DX002 (ip), vehicle: saline with Tween-80 101 % of control

N#Cc1n[nH]c2nc(=S)sc(N)c12
inactive: dose: 100.0 mg/kg/injection, schedule: Q04DX002 (ip), vehicle: water 103 % of control | dose: 200.0 mg/kg/injection, schedule: Q04DX002 (ip), vehicle: water 90 % of control | dose: 400.0 mg/kg/injection, schedule: Q04DX002 (ip), vehicle: water 97 % of control

CCCCCCCCCCCCCCOC(=O)c1ccc(O)cc1
inactive: [2] 94 % of control | [3] 101 % of control | [4] 89 % of control

O=c1ccocc1OC1OC(CO)C(O)C(O)C1O (stereo not given)
inactive: dose: 5.75 mg/kg/injection, schedule: Q01DX005 (ip), vehicle: saline 95 % of control | dose: 11.5 mg/kg/injection, schedule: Q01DX005 (ip), vehicle: saline 113 % of control | dose: 23.0 mg/kg/injection, schedule: Q01DX005 (ip), vehicle: saline 106 % of control | dose: 46.0 mg/kg/injection, schedule: Q01DX005 (ip), vehicle: saline 105 % of control

CC1(C)C/C(=C\c2ccc([N+](=O)[O-])cc2)C(=O)c2ccccc21
inactive: [1] 99 % of control | [2] 100 % of control | [3] 99 % of control | [4] 98 % of control | dose: 400.0 mg/kg/injection, schedule: Q01DX009 (ip), vehicle: Klucel (hydroxypropylcellulose) (HPC) 88 % of control

N#C/C(=C\C=C\c1ccccc1)c1nc(-c2ccc(Cl)cc2)cs1
inactive: dose: 50.0 mg/kg/injection, schedule: Q01DX009 (ip), vehicle: saline 91 % of control | dose: 100.0 mg/kg/injection, schedule: Q01DX009 (ip), vehicle: saline 91 % of control | dose: 200.0 mg/kg/injection, schedule: Q01DX009 (ip), vehicle: saline 88 % of control

COC(OC)(OC)OC
inactive: dose: 50.0 mg/kg/injection, schedule: Q01DX005 (ip), vehicle: saline 104 % of control | dose: 100.0 mg/kg/injection, schedule: Q01DX005 (ip), vehicle: saline 108 % of control | dose: 200.0 mg/kg/injection, schedule: Q01DX005 (ip), vehicle: saline 109 % of control

Cc1nc2ncn(-c3ccccc3)c2c(=O)n1Cc1ccccc1
inactive: [11] 105 % of control | [12] 105 % of control | [13] 105 % of control

COc1cc2c(cc1OC)C(O)C1CCCNC1C2 (stereo not given)
inactive: dose: 25.0 mg/kg/injection, schedule: Q04DX002 (ip), vehicle: saline 98 % of control | dose: 50.0 mg/kg/injection, schedule: Q04DX002 (ip), vehicle: saline 103 % of control | dose: 100.0 mg/kg/injection, schedule: Q04DX002 (ip), vehicle: saline 102 % of control | dose: 200.0 mg/kg/injection, schedule: Q04DX002 (ip), vehicle: saline 102 % of control | dose: 400.0 mg/kg/injection, schedule: Q04DX002 (ip), vehicle: saline 101 % of control
